Reference: patent US7585976B2, “Hemiasterlin derivatives and uses thereof” (priority 2002, dated 2009)

Assay: Screening profile of desired properties (growth inhibition, MDR, cytotoxicity, mouse serum stability, mitotic block reversibility, xenografts)
Settings: properties (i)-(vii)
Experimental: In certain embodiments, compounds of the invention were tested for in vitro and in vivo activity. Screening methods included standard in vitro cell growth inhibition assays using a panel of human cancer cell lines, a U937 (ATCC accession number CRL 1593) mitotic block reversibility assay, mouse serum stability assay, MDR assay, and cytotoxicity assay. In certain other emdodiments, compounds of the invention were evaluated in tumor xenograft in vivo growth inhibition assays.

Structure (SMILES) | desired properties (growth inhibition IC50, resistance ratio, cytotoxicity in non-dividing cells, mouse serum stability, reversibility ratio, tumor regression, T/C)
CCC(CC)(NC)C(=O)N[C@H](C(=O)N(C)[C@H](/C=C(\C)C(=O)O)C(C)C)C(C)(C)C [ER-807850] | exhibiting desired properties
C/C(=C\[C@H](C(C)C)N(C)C(=O)[C@@H](NC(=O)[C@H]1CCCCN1C(C)C(C)C)C(C)(C)C)C(=O)O (single isomer, unassigned) [ER-808662] | exhibiting desired properties
CC(C)OC(=O)[C@@H]1CCCN1C(=O)[C@@H]1CCCN1C[C@H](C(C)C)N(C)C(=O)[C@@H](NC(=O)C1CCCCN1C)C(C)(C)C (some centres unmarked) [ER-807904] | exhibiting desired properties
C/C(=C\[C@H](C(C)C)N(C)C(=O)[C@@H](NC(=O)[C@H]1CCCCN1C(C)C)C(C)(C)C)C(=O)O [ER-807974] | exhibiting desired properties
CCC(C)N1CCCC[C@@H]1C(=O)N[C@H](C(=O)N(C)[C@H](/C=C(\C)C(=O)O)C(C)C)C(C)C (some centres unmarked) [ER-808824] | exhibiting desired properties
CCC(C)N1CCCC[C@@H]1C(=O)N[C@H](C(=O)N(C)[C@H](/C=C(\C)C(=O)O)C(C)C)C(C)(C)C (some centres unmarked) [ER-808368] | exhibiting desired properties
CN[C@H](C(=O)N[C@H](C(=O)N(C)[C@H](CN1CCC[C@H]1C(=O)N1CCC[C@H]1C(N)=O)C(C)C)C(C)(C)C)C(C)(C)c1ccccc1 [ER-807328] | exhibiting desired properties
CN[C@H](C(=O)N[C@H](C(=O)N(C)[C@H](CN(C)CC(=O)N1CCC[C@H]1C(=O)OC)C(C)C)C(C)(C)C)C(C)(C)c1ccccc1 [ER-806925] | exhibiting desired properties
CN[C@H](C(=O)N[C@H](C(=O)N(C)[C@H](/C=C(\C)C(=O)O)C(C)C)C(C)(C)C)C(C)(C)c1ccc(OCc2ccccc2)cc1 [ER-805913] | exhibiting desired properties
CN[C@H](C(=O)N[C@H](C(=O)N(C)[C@H](/C=C(\C)C(=O)N1CCC[C@H]1C(=O)OC)C(C)C)C(C)(C)C)C(C)(C)c1ccccc1 [ER-805736] | exhibiting desired properties
C/C(=C\[C@H](C(C)C)N(C)C(=O)[C@@H](NC(=O)[C@H]1CCCCN1C)C(C)(C)C)C(=O)O [ER-807102] | exhibiting desired properties
